# In publication PMC9851200, “Multiparameter phenotypic screening for endogenous TFEB and TFE3 translocation identifies novel chemical series modulating lysosome function” (Autophagy, 2022):
# Like-named read-outs stand apart in the source and are kept apart here.
# Legend:
# Experiment in all cases: biochemical
# Type in all cases: binding
# [1] = molecular target: T1, cellular kinases of SH-SY5Y cells (Homo sapiens, UniProt Q13418); conditions: 2µM, SH-SY5Y cells
# T1 construct: endogenous in cells; host or cells: SH-SY5Y
# T1 sequence (Q13418 whole entry): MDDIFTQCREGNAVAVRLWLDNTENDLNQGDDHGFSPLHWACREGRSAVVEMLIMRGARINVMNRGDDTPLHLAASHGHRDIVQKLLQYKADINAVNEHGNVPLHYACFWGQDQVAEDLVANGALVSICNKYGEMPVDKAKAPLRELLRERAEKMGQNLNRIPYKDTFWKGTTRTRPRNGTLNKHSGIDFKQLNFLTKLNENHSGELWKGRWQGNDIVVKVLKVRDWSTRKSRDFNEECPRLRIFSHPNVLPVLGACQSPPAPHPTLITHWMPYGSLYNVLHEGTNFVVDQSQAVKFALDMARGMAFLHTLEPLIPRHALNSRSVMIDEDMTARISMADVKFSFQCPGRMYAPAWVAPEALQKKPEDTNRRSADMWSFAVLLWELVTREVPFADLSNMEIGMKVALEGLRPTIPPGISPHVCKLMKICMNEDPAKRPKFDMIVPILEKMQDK
# Excerpt: (§1) As KINOMEscan is an in vitro assay, and as different cell types have variable kinase expression profiles we sought to determine the kinase binding profile in our SH-SY5Y TFEB-relocalization cell model. […] Bound kinases were pulled down and analyzed by mass spectrometry to determine the in situ kinase binding profile for each compound.
# [2] = molecular target: cellular kinases of SH-SY5Y cells (Homo sapiens, UniProt Q16566); conditions: 2µM, SH-SY5Y cells
# Sequence of cellular kinases of SH-SY5Y cells (Homo sapiens, UniProt Q16566) (Q16566 whole entry): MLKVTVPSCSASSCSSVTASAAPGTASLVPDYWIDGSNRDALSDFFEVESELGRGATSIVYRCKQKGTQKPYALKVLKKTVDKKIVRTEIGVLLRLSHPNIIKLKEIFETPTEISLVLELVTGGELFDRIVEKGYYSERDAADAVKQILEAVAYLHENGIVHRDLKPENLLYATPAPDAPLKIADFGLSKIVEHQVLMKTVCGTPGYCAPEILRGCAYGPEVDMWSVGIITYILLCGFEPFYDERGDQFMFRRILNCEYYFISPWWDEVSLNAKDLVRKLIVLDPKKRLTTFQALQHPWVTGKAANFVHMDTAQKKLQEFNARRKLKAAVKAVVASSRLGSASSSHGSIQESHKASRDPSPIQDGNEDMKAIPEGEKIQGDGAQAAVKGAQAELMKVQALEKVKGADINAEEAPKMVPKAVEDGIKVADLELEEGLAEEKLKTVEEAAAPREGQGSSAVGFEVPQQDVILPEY
# Excerpt: as §1
# [3] = molecular target: cellular kinases of SH-SY5Y cells (Homo sapiens, UniProt Q9HCP0); conditions: 2µM; SH-SY5Y cells; Labeling Site Lys2; DVKPENFLIGR; read-out: KiNativ in-cell binding, % Inhibition, CK1g1
# Excerpt: as §1
# [4] = molecular target: T2, cellular kinases of SH-SY5Y cells (Homo sapiens, UniProt Q6PHR2); conditions: 2µM; SH-SY5Y cells; labeling site Lys1; peptide EVVAIKCVAK
# T2 construct: endogenous in cells; host or cells: SH-SY5Y
# Excerpt: as §1
# [5] = molecular target: cellular kinases of SH-SY5Y cells (Homo sapiens, UniProt P68400); conditions: 2µM; SH-SY5Y cells; labeling site Protein Kinase Domain; peptide GGPNIITLADIVKDPVSR
# Excerpt: as §1
# [6] = molecular target: cellular kinases of SH-SY5Y cells (Homo sapiens, UniProt Q8IU85); conditions: 2µM, SH-SY5Y cells
# Sequence of cellular kinases of SH-SY5Y cells (Homo sapiens, UniProt Q8IU85) (Q8IU85 whole entry): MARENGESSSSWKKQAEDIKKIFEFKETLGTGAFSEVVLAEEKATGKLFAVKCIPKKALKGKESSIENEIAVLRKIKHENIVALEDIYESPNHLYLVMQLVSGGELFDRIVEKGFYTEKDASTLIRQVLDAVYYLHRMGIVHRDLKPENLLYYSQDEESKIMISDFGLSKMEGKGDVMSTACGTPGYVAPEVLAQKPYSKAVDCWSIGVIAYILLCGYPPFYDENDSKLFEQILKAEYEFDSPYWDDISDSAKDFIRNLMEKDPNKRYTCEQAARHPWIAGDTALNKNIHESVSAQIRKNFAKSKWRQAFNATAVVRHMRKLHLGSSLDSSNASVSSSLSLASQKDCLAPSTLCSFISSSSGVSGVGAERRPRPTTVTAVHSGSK
# Excerpt: as §1
# [7] = molecular target: T3, cellular kinases of SH-SY5Y cells (Homo sapiens, UniProt P16591); conditions: 2µM, SH-SY5Y cells
# T3 construct: endogenous in cells; host or cells: SH-SY5Y
# T3 sequence (P16591 whole entry): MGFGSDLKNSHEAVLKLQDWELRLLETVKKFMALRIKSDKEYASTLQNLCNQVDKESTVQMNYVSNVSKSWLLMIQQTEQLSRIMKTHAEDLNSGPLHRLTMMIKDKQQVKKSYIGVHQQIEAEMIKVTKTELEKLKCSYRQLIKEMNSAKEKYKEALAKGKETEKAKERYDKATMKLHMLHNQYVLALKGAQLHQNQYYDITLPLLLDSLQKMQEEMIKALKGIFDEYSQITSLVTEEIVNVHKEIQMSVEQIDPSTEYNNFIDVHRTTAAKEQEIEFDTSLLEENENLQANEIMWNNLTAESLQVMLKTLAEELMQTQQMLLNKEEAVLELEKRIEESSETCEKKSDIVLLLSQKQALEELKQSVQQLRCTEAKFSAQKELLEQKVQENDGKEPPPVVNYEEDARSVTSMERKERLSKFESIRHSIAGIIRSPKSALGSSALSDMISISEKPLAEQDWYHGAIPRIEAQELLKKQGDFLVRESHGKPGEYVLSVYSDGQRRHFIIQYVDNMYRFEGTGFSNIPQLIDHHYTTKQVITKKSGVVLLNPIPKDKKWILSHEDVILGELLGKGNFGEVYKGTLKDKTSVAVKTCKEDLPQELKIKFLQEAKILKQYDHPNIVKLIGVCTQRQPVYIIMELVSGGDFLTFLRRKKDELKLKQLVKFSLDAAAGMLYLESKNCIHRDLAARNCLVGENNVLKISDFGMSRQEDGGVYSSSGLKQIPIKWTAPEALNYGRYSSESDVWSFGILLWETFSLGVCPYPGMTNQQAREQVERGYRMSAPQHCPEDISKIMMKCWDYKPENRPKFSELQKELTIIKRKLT
# Excerpt: as §1
# [8] = molecular target: T4, cellular kinases of SH-SY5Y cells (Homo sapiens, UniProt Q9BYT3); conditions: 2µM; SH-SY5Y cells; Labeling Site Lys2; DLKLENIMVK; read-out: KiNativ in-cell binding, % Inhibition, STK33
# T4 construct: endogenous in cells; host or cells: SH-SY5Y
# T4 sequence (Q9BYT3 whole entry): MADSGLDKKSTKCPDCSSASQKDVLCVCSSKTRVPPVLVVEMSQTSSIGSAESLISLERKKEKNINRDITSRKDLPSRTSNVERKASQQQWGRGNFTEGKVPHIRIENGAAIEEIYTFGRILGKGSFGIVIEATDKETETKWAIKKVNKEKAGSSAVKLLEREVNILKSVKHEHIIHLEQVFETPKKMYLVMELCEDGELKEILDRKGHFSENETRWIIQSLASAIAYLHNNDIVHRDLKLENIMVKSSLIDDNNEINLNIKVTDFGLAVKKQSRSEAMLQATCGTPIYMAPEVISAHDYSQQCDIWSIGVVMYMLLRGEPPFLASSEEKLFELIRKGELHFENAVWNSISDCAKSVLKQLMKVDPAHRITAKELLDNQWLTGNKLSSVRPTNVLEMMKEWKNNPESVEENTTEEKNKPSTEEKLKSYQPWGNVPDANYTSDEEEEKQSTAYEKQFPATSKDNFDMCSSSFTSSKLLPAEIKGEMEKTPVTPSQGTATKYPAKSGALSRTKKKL
# Excerpt: as §1
# [9] = molecular target: cellular kinases of SH-SY5Y cells (Homo sapiens, UniProt Q96Q15); conditions: 2µM, SH-SY5Y cells, Labeling Site ATP, read-out: KiNativ in-cell binding, % Inhibition, SMG1
# Excerpt: as §1
# [10] = molecular target: T5, cellular kinases of SH-SY5Y cells (Homo sapiens, UniProt Q15131); conditions: 2µM; SH-SY5Y cells; labeling site Lys2; peptide DLKVSNLLMTDK
# T5 construct: endogenous in cells; host or cells: SH-SY5Y
# Excerpt: as §1
# [11] = molecular target: T6, cellular kinases of SH-SY5Y cells (Homo sapiens, UniProt Q15418); conditions: 2µM, SH-SY5Y cells
# T6 construct: endogenous in cells; host or cells: SH-SY5Y
# T6 sequence (Q15418 whole entry): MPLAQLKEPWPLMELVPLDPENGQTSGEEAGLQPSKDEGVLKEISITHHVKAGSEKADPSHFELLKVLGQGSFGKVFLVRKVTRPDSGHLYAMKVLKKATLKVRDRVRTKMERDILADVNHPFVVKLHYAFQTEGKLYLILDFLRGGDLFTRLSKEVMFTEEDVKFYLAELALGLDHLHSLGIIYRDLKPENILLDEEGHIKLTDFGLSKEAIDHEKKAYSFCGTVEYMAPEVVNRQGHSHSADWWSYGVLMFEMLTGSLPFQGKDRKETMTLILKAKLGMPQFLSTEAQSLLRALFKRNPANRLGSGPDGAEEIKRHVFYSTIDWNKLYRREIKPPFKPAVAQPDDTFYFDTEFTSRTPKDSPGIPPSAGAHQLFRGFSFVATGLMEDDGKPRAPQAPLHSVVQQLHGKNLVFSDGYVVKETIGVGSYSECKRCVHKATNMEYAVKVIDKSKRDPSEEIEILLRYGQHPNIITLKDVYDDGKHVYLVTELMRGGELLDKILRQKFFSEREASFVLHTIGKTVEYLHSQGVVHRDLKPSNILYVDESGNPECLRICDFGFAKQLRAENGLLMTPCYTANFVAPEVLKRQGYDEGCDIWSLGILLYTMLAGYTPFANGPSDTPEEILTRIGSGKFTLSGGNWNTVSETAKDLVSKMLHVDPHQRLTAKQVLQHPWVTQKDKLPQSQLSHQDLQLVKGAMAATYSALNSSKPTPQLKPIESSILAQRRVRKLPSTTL
# Excerpt: as §1
# [12] = molecular target: cellular kinases of SH-SY5Y cells (Homo sapiens, UniProt Q9Y2U5); conditions: 2µM; SH-SY5Y cells; Labeling Site Lys1; ELAVKQVQFDPDSPETSKEVNALECEIQLLK; read-out: KiNativ in-cell binding, % Inhibition, MAP3K2
# Excerpt: as §1
# [13] = molecular target: T7, cellular kinases of SH-SY5Y cells (Homo sapiens, UniProt O96017); conditions: 2µM, SH-SY5Y cells, read-out: KiNativ in-cell binding, % Inhibition, CHEK2/CHK2
# T7 construct: endogenous in cells; host or cells: SH-SY5Y
# T7 sequence (O96017 whole entry): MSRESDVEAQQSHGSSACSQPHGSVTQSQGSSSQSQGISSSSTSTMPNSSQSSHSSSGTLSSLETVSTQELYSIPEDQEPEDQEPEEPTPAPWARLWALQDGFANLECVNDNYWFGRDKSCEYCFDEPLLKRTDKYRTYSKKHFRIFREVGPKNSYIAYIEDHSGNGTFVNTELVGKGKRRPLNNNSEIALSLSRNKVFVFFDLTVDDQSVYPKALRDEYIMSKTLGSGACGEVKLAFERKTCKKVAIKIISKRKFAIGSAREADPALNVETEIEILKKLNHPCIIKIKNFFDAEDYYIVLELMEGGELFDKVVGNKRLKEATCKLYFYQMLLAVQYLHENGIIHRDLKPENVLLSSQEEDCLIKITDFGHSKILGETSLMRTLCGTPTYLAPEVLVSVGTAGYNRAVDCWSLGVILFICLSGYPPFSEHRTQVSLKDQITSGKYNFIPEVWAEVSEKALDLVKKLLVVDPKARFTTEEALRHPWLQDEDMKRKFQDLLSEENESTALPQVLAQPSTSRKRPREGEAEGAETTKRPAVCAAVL
# Excerpt: as §1
# [14] = molecular target: cellular kinases of SH-SY5Y cells (Homo sapiens, UniProt P51617); conditions: 2µM; SH-SY5Y cells; labeling site Lys2; peptide AIQFLHQDSPSLIHGDIKSSNVLLDER
# Excerpt: as §1
# [15] = molecular target: T8, cellular kinases of SH-SY5Y cells (Homo sapiens, UniProt Q16513); conditions: 2µM; SH-SY5Y cells; labeling site Lys2; peptide DLKLDNLLLDTEGFVK
# T8 construct: endogenous in cells; host or cells: SH-SY5Y
# Excerpt: as §1
# [16] = molecular target: T9, cellular kinases of SH-SY5Y cells (Homo sapiens, UniProt Q96BR1); conditions: 2µM; SH-SY5Y cells; Labeling Site Lys1; FYAVKVLQK; read-out: KiNativ in-cell binding, % Inhibition, SGK3
# T9 construct: endogenous in cells; host or cells: SH-SY5Y
# Excerpt: as §1
# [17] = molecular target: T10, cellular kinases of SH-SY5Y cells (Homo sapiens, UniProt O75385); conditions: 2µM; SH-SY5Y cells; Labeling Site Lys2; DLKPQNILLSNPAGR; read-out: KiNativ in-cell binding, % Inhibition, ULK1
# T10 construct: endogenous in cells; host or cells: SH-SY5Y
# Excerpt: as §1
# [18] = molecular target: T11, cellular kinases of SH-SY5Y cells (Homo sapiens, UniProt Q8IVH8); conditions: 2µM, SH-SY5Y cells, read-out: KiNativ in-cell binding, % Inhibition, MAP4K3
# T11 construct: endogenous in cells; host or cells: SH-SY5Y
# T11 sequence (Q8IVH8 whole entry): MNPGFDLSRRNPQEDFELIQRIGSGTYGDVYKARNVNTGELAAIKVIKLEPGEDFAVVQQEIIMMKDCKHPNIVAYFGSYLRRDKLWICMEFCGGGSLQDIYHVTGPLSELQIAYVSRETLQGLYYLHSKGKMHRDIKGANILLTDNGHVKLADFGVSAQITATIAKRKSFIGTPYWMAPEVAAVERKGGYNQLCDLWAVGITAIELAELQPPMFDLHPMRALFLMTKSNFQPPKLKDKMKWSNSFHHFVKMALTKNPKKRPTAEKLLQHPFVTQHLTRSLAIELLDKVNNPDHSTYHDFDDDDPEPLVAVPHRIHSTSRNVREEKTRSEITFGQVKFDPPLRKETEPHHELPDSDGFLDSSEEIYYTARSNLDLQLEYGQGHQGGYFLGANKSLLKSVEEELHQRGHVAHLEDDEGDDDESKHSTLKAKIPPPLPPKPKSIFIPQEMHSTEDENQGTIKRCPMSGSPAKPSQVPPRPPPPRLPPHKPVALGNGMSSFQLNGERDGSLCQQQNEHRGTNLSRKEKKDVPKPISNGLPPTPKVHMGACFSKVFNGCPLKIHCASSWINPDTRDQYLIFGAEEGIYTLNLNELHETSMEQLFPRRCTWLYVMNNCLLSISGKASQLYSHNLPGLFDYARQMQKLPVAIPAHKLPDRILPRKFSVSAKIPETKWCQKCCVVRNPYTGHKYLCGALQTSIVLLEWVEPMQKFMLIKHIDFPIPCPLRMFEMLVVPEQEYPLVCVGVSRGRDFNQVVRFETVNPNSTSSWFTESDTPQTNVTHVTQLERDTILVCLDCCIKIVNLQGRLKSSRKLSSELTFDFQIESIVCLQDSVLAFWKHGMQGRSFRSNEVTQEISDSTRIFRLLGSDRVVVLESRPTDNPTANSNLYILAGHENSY
# Excerpt: as §1
# [19] = molecular target: T12, cellular kinases of SH-SY5Y cells (Homo sapiens, UniProt P51957); conditions: 2µM; SH-SY5Y cells; Labeling Site Lys2; DLKTQNVFLTR; read-out: KiNativ in-cell binding, % Inhibition, NEK4
# T12 construct: endogenous in cells; host or cells: SH-SY5Y
# Excerpt: as §1
# [20] = molecular target: cellular kinases of SH-SY5Y cells (Homo sapiens, UniProt P42338); conditions: 2µM; SH-SY5Y cells; Labeling Site ATP; VFGEDSVGVIFKNGDDLRQDMLTLQMLR; read-out: KiNativ in-cell binding, % Inhibition, PIK3CB
# Excerpt: as §1
# [21] = molecular target: T13, cellular kinases of SH-SY5Y cells (Homo sapiens, UniProt Q9UHD2); conditions: 2µM; SH-SY5Y cells; labeling site Lys1; peptide TGDLFAIKVFNNISFLRPVDVQMR
# T13 construct: endogenous in cells; host or cells: SH-SY5Y
# Excerpt: as §1
smiles,measurement,setting,value
Cc1cccc(-c2nc(Nc3ccc4ncsc4c3)c3ccccc3n2)n1 [NK140],inhibition at 2 µM,"[1]; Labeling Site Protein Kinase Domain, ISMADVKFSFQCPGR, read-out: KiNativ in-cell binding, % Inhibition, ILK",-31.8%
same,"KiNativ in-cell binding, ILK","[1]; labeling site Lys1, peptide WQGNDIVVKVLK",-23.6
same,"KiNativ in-cell binding, CaMK4","[2]; labeling site Lys1, peptide GTQKPYALKVLK",-10.9
same,"KiNativ in-cell binding, CaMK4","[2]; labeling site Lys2, peptide DLKPENLLYATPAPDAPLK",-28.9
same,inhibition at 2 µM,[3],-28.2%
same,"KiNativ in-cell binding, ULK3",[4],-25.0
same,"KiNativ in-cell binding, CSNK2A1",[5],31.0
same,inhibition at 2 µM,"[6]; Labeling Site Lys1, LFAVKCIPK, read-out: KiNativ in-cell binding, % Inhibition, CaMK1d",-23%
same,"KiNativ in-cell binding, CaMK1d","[6]; labeling site Lys2, peptide DLKPENLLYYSQDEESK",-24.1
same,"KiNativ in-cell binding, FER","[7]; labeling site Activation Loop, peptide QEDGGVYSSSGLKQIPIK",-42.5
same,"KiNativ in-cell binding, FER","[7]; labeling site Lys1, peptide TSVAVKTCKEDLPQELK",-53.4
same,inhibition at 2 µM,[8],-1.4%
same,inhibition at 2 µM,[9]; DTVTIHSVGGTITILPTKTKPK,11.2%
same,inhibition at 2 µM,[9]; SYPYLFKGLEDLHLDER,43.7%
same,"KiNativ in-cell binding, CDK10",[10],3.3
same,inhibition at 2 µM,"[11]; Labeling Site Activation Loop, LTDFGLSKEAIDHEKK, read-out: KiNativ in-cell binding, % Inhibition, RPS6KA1/RSK1 domain1",-25.4%
same,inhibition at 2 µM,"[11]; Labeling Site Lys2, DLKPSNILYVDESGNPECLR, read-out: KiNativ in-cell binding, % Inhibition, RPS6KA1/RSK1 domain2",-53.6%
same,inhibition at 2 µM,[12],-2%
same,inhibition at 2 µM,"[13]; Labeling Site Lys1, VAIKIISK",7.7%
same,inhibition at 2 µM,"[13]; Labeling Site Lys2, DLKPENVLLSSQEEDCLIK",15.3%
same,"KiNativ in-cell binding, IRAK1",[14],-26.5
same,"KiNativ in-cell binding, PKN2",[15],-28.2
same,inhibition at 2 µM,[16],1%
same,inhibition at 2 µM,[17],-13.4%
same,inhibition at 2 µM,"[18]; Labeling Site Lys1, NVNTGELAAIKVIK",29.8%
same,inhibition at 2 µM,"[18]; Labeling Site Lys2, DIKGANILLTDNGHVK",20.5%
same,inhibition at 2 µM,[19],-36%
same,inhibition at 2 µM,[20],-11.4%
same,"KiNativ in-cell binding, TBK1",[21],-253.9
